In ChEMBL document CHEMBL5723035, “Affinity Biochemical Literature for EUbOPEN Chemogenomic Library” (2024):
Non-standard residues stand in square brackets, D forms with d. Residues, ends and D or L forms follow the SMILES beside them. *: point of attachment. Tyr(3-Cl) = N[C@@H](Cc1ccc(O)c(Cl)c1)C(=O)O; Benzoyl(3,5-Cl2) = O=C(c1cc(Cl)cc(Cl)c1)*; Lys(Et2) = CCN(CC)CCCC[C@H](N)C(=O)O; Gly(cPent) = N[C@H](C(=O)O)C1CCCC1; Cbz = O=C(OCc1ccccc1)*; NH(propargyl) = C#CCN*; CH2F = FC*

Columns and labels:
[1] = target: Ubiquitin carboxyl-terminal hydrolase 7 (Homo sapiens, UniProt Q93009); experiment: Affinity Biochemical interaction: (inhibition of enzyme activity in cleaving fluorogenic ubiquitin-rhodamine substrate) EUB0002755a USP7; format: functional; parameters: mode of action Inhibitor, recommended concentration 1 uM
Ubiquitin carboxyl-terminal hydrolase 7, sequence (Q93009 whole entry): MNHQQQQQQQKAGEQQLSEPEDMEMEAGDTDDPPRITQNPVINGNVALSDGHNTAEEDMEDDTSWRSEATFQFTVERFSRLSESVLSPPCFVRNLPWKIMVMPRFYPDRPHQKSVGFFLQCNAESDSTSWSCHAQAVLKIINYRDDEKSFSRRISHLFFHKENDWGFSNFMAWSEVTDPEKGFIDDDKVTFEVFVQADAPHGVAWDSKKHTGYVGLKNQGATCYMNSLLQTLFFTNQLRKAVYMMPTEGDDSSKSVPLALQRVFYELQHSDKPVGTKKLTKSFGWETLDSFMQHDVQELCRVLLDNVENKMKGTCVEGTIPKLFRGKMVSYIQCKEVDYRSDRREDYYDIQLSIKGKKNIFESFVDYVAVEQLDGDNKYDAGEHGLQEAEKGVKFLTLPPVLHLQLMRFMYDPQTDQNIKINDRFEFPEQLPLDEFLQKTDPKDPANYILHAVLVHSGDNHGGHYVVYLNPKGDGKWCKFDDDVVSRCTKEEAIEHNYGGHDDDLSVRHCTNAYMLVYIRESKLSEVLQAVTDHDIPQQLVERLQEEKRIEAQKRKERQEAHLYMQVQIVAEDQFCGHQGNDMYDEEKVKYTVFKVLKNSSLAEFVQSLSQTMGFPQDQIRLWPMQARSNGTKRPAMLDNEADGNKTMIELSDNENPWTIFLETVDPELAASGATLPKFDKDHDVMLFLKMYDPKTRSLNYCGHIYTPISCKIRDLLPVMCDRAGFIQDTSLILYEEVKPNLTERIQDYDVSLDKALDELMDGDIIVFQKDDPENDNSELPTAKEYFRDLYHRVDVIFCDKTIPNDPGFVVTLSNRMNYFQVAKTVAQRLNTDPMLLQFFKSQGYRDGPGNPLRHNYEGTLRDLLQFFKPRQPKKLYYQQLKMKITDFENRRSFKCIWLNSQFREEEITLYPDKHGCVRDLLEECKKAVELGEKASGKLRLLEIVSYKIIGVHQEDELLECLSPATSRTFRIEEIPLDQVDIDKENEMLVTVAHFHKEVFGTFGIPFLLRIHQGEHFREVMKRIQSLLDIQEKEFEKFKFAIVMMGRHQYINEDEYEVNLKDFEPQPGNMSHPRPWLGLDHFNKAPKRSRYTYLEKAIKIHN

[2] = target: cGMP-specific 3',5'-cyclic phosphodiesterase (Homo sapiens, UniProt O76074); experiment: Affinity Biochemical interaction: (inhibition of enzyme activity in cleaving radiolabelled substrate [3H]cGMP) EUB0002742aCl PDE5A; format: functional; parameters: mode of action Inhibitor, recommended concentration 1 uM
Cathepsin S = Cathepsin S (Homo sapiens, UniProt P25774); experiment: Affinity Biochemical interaction: (inhibition of enzyme activity in cleaving fluorogenic substrate) EUB0002791a CTSS; format: functional; parameters: mode of action Inhibitor, recommended concentration 1 uM
Cathepsin S, sequence (P25774 whole entry): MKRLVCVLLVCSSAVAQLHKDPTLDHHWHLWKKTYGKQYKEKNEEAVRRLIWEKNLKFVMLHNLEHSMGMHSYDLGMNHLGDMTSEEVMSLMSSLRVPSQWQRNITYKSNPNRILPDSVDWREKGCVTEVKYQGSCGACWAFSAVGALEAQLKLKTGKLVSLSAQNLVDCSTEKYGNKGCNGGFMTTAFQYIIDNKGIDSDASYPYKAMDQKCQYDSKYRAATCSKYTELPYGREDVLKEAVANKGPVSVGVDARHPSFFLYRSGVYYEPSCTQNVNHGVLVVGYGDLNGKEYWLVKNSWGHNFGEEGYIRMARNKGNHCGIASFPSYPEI

[3] = target: T1, Calpain-1 catalytic subunit (Homo sapiens, UniProt P07384); experiment: Affinity Biochemical interaction: (inhibition of enzyme activity using a fluorogenic substrate) EUB0002786aAD CAPN1; format: functional; parameters: mode of action Inhibitor, recommended concentration 1 uM
T1 sequence (P07384 whole entry): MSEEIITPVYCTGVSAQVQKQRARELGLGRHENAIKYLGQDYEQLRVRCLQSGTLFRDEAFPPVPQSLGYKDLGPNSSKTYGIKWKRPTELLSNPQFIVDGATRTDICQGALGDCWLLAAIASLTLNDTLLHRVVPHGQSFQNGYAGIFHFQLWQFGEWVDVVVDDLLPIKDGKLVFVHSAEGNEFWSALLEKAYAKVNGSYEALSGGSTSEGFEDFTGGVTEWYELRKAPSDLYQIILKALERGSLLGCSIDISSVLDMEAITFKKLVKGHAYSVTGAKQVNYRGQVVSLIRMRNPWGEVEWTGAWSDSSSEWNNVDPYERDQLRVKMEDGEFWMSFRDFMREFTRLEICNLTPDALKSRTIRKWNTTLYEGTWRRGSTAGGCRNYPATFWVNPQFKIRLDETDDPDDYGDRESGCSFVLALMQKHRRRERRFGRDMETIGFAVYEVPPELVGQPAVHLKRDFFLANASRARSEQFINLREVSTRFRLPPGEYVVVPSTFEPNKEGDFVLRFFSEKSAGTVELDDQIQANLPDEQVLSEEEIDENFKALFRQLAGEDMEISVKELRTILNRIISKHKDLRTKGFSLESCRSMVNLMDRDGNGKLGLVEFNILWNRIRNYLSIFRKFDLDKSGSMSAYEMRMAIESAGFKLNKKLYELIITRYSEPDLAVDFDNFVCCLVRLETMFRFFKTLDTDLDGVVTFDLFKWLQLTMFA

[4] = target: T1, Calpain-1 catalytic subunit; experiment: Affinity Biochemical interaction: (inhibition of casein degradation, monitored by measuring generation of trichloroacetic acid-soluble peptides) EUB0002786aAD CAPN1; format: functional; parameters: mode of action Inhibitor, recommended concentration 1 uM
[5] = target: Calpain-2 catalytic subunit (Homo sapiens, UniProt P17655); experiment: Affinity Biochemical interaction: (inhibition of casein degradation, monitored by measuring generation of trichloroacetic acid-soluble peptides) EUB0002786aAD CAPN2; format: functional; parameters: mode of action Inhibitor, recommended concentration 1 uM
Calpain-2 catalytic subunit, sequence (P17655 whole entry): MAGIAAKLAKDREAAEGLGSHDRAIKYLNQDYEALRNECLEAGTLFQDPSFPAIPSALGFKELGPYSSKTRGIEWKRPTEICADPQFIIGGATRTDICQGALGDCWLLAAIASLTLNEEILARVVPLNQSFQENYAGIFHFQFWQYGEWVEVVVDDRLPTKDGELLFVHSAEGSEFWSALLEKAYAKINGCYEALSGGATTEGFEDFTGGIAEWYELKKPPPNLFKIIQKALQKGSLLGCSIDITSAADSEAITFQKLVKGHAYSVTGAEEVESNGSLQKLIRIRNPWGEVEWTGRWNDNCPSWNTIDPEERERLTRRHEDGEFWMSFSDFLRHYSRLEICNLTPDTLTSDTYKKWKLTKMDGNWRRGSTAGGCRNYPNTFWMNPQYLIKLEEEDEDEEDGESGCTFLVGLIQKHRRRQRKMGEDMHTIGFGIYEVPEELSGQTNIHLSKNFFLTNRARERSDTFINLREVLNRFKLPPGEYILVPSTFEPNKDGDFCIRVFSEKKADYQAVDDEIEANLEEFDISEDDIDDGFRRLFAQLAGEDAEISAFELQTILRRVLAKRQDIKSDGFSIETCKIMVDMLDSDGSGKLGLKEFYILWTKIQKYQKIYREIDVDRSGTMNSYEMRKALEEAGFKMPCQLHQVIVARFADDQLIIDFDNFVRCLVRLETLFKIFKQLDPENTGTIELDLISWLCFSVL

Menin = Menin (Homo sapiens, UniProt O00255); experiment: Affinity Biochemical interaction: (Enzymatic assay) EUB0002767a MEN1; format: functional; parameters: mode of action Inhibitor, recommended concentration 1 uM
Menin, sequence (O00255 whole entry): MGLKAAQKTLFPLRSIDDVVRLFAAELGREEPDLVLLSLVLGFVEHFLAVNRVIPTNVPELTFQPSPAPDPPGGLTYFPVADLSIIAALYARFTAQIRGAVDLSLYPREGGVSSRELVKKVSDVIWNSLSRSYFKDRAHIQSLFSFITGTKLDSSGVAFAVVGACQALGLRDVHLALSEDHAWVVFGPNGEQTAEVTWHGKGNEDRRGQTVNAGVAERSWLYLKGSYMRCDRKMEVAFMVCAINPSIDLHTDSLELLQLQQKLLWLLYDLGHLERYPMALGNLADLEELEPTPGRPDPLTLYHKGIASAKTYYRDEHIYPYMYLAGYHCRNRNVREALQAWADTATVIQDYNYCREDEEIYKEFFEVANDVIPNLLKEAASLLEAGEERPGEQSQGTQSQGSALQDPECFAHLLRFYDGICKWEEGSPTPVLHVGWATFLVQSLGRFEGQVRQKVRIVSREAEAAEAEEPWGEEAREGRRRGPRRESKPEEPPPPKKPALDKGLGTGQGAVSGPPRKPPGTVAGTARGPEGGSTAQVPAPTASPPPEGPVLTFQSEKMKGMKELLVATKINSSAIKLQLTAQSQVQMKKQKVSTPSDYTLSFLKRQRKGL

Caspase-2 = Caspase-2 (Homo sapiens, UniProt P42575); experiment: Affinity Biochemical interaction: (enzymatic assay (cleavage of fluorogenic substrate)) EUB0002782a CASP2; format: functional; parameters: mode of action Inhibitor, recommended concentration 1 uM
Caspase-2, sequence (P42575 170-325 limits assumed): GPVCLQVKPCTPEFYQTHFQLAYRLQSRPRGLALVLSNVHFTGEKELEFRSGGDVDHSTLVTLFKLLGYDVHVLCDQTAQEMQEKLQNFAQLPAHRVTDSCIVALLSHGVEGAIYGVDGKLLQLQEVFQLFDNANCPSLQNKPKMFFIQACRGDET
Caspase-2, sequence (P42575 334-452 limits assumed): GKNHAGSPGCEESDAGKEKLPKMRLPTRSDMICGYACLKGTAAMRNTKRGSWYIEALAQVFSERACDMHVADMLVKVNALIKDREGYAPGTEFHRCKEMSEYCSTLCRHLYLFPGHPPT

[6] = target: Ubiquitin carboxyl-terminal hydrolase 30 (Homo sapiens, UniProt Q70CQ3)
[7] = target: Poly [ADP-ribose] polymerase 2 (Homo sapiens, UniProt Q9UGN5); experiment: Affinity Biochemical interaction: (inhibition of enzyme activity) EUB0002763a PARP2; format: functional; parameters: mode of action Inhibitor, recommended concentration 1 uM
[8] = target: Poly [ADP-ribose] polymerase 1 (Homo sapiens, UniProt P09874); experiment: Affinity Biochemical interaction: (inhibition of enzyme activity) EUB0002763a PARP1; format: functional; parameters: mode of action Inhibitor, recommended concentration 1 uM
[9] = target: T2, Chromobox protein homolog 2 (Homo sapiens, UniProt Q14781); experiment: Affinity Biochemical interaction: (thermal shift assay (non-derivatised)) EUB0002728a CBX2; parameters: mode of action Inhibitor, recommended concentration 1 uM
T2 sequence (Q14781 whole entry): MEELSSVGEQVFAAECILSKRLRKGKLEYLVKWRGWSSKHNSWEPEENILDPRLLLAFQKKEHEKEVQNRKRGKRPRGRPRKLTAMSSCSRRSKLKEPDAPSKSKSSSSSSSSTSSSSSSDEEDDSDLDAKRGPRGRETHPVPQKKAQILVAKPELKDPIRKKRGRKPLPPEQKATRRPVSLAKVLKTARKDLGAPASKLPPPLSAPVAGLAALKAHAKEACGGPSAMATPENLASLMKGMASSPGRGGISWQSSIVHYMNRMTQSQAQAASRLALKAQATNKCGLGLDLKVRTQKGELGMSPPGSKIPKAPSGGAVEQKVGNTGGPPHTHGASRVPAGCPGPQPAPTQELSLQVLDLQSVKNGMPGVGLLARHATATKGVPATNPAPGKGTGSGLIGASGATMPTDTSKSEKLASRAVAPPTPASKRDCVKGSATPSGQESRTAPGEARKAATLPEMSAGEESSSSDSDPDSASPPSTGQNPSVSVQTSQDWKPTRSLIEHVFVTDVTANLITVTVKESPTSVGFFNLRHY

[10] = target: T2, Chromobox protein homolog 2; experiment: Affinity Biochemical interaction: (Fluorescence polarisation (fluorescein conjugated)) EUB0002728a CBX2; format: functional; parameters: mode of action Inhibitor, recommended concentration 1 uM
[11] = target: WD repeat-containing protein 5 (Homo sapiens, UniProt P61964); experiment: Affinity Biochemical interaction: (Time-resolved fluorescence energy transfer (TR-FRET) assay to determine the competitive binding affinity (Ki) against the MLL1-derived FITC-peptide probe) EUB0002769a WDR5; format: functional; parameters: mode of action Inhibitor, recommended concentration 1 uM
[12] = target: Histone-lysine N-methyltransferase 2A (Homo sapiens, UniProt Q03164); experiment: Affinity Biochemical interaction: (H3K4 HMT inhibition assay to measure the effect on MLL1-mediated HMT activity) EUB0002769a MLL; format: functional; parameters: mode of action Inhibitor, recommended concentration 1 uM
Dipeptidyl peptidase 1 = Dipeptidyl peptidase 1 (Homo sapiens, UniProt P53634); experiment: Affinity Biochemical interaction: (No data available) EUB0002789aCl CTSC; parameters: mode of action Inhibitor, recommended concentration 1 uM
Dipeptidyl peptidase 1, sequence (P53634 25-134 limits assumed): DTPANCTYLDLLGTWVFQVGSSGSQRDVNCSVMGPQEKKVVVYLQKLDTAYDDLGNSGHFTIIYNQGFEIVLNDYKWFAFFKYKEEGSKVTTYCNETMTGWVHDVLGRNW
Dipeptidyl peptidase 1, sequence (P53634 231-394 limits assumed): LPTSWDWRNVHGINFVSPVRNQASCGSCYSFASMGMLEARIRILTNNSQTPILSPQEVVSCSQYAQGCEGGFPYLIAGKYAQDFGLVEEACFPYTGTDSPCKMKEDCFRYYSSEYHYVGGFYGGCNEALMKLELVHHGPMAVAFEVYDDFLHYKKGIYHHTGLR
Dipeptidyl peptidase 1, sequence (P53634 395-463 limits assumed): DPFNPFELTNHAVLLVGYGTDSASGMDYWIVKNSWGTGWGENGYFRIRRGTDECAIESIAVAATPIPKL

[13] = target: Ubiquitin carboxyl-terminal hydrolase 1 (Homo sapiens, UniProt O94782); experiment: Affinity Biochemical interaction: (Ubiquitin-rhodamine 110 Assay for USP1 activity) EUB0002793a USP1; format: functional; parameters: mode of action Inhibitor, recommended concentration 1 uM

Cc1cc(Cl)cc(-c2c3sc(CN4C(=O)C5C(C4=O)C5(C)C)cc3nn2C)c1OC1CCNCC1 (configuration not stated)
IC50 [1]: 13.4 nM

CCn1c(=S)[nH]c2cc3c(NCc4ccccc4N4CCC(CO)CC4)ncnc3cc21
IC50 [2]: 0.074 nM

CC(F)(F)C(=O)N[C@@H](CC1(F)CCCC1)C(=O)NC1(C(=O)C(N)=O)CCC1
Ki (Cathepsin S): 2.1 nM

CC[C@H](C)[C@H](NC(=O)[C@H](Cc1ccc(O)cc1)NC(=O)[C@@H](NC(=O)[C@H](CO)NC(=O)[C@H](CO)NC(=O)[C@H](CCSC)NC(=O)[C@@H]1CCCN1C(=O)[C@H](CC(=O)O)NC(C)=O)[C@@H](C)O)C(=O)N[C@@H](CCC(=O)O)C(=O)N[C@@H](CCC(=O)O)C(=O)N[C@@H](CC(C)C)C(=O)NCC(=O)N[C@@H](CCCCN)C(=O)N[C@@H](CCCNC(=N)N)C(=O)N[C@@H](CCC(=O)O)C(=O)N[C@H](C(=O)N[C@H](C(=O)N[C@H](C(=O)N1CCC[C@H]1C(=O)N1CCC[C@H]1C(=O)N[C@@H](CCCCN)C(=O)N[C@@H](Cc1ccc(O)cc1)C(=O)N[C@@H](CCCNC(=N)N)C(=O)N[C@@H](CCC(=O)O)C(=O)N[C@@H](CC(C)C)C(=O)N[C@@H](CC(C)C)C(=O)N[C@@H](C)C(N)=O)[C@@H](C)CC)[C@@H](C)O)C(C)C (Ac-DPMSSTYIEELGKREVTIPPKYRELLA-NH2)
Ki [3]: 0.2 nM
IC50 [4]: ~60 nM
IC50 [5]: ~30 nM

CC(C)N(C(=O)c1cc(F)ccc1Oc1cncnc1N1CC2(CCN(C[C@H]3CC[C@H](NS(C)(=O)=O)CC3)CC2)C1)C(C)C
Ki (Menin): 0.104 nM

COC(=O)CC(NC(=O)C(C)NC(=O)C(NC(=O)C(CC(=O)OC)NC(=O)C(NC(=O)OCc1ccccc1)C(C)C)C(C)C)C(=O)CF (configuration not stated) (Cbz-VD(OMe)VAD(OMe)-CH2F; configuration not given here)
IC50 (Caspase-2): ~80 nM

COc1ccc(-c2csc(N(C)C(=O)[C@@H]3CCCN3C#N)n2)nc1C#N
IC50 [6]: < 100 nM

O=C(c1cc(Cc2n[nH]c(=O)c3ccccc23)ccc1F)N1CC(CNC2CC2)C1
IC50 [7]: 1 nM
IC50 [8]: 1.4 nM

C#CCNC(=O)[C@H](CO)NC(=O)[C@H](CCCCN(CC)CC)NC(=O)[C@@H](NC(=O)[C@@H](NC(=O)[C@H](Cc1ccc(O)c(Cl)c1)NC(=O)c1cc(Cl)cc(Cl)c1)C1CCCC1)[C@@H](C)CC ({Benzoyl(3,5-Cl2)}-[Tyr(3-Cl)][Gly(cPent)]I[Lys(Et2)]S-{NH(propargyl)})
Kd [9]: 110 nM
Kd [10]: 80 nM

COc1cc(O)cc(CN2CCc3c(cc(Cn4ccn(C)c4=N)cc3-c3ccc(F)cc3C)C2=O)c1
Kd [11]: < 0.02 nM
IC50 [12]: 2.2 nM

CC[C@@H](/C=C/C(=O)N1CCc2ccccc21)NC(=O)C1(N)CCOCC1
IC50 (Dipeptidyl peptidase 1): < 0.43 nM

CC(C)c1c(F)cccc1-c1ncc2[nH]c(=O)n(Cc3ccc(-c4nc(C(F)(F)F)cn4C)cc3)c2n1
IC50 [13]: < 50 nM
